Assay results reported in patent US20220153732A1, “PROTEIN SECRETION INHIBITORS” (KEZAR LIFE SCIENCES, priority 2019, published 2022).
pEC50, pIC50: −log10 of the molar value.

Key:
Type in all cases: cell-based
[1] = tested on: PD1-ss+10aa/Gaussia Luciferase; test: Dox-Induced PD1-ss-Gluc Assay; conditions: 24 hr doxycycline induction, 293FRT/TO cells, Gaussia luciferase signal; read-out: 24 hr Dox Inducible PD1ssGluc 293FRT/TO: Mean IC50
In short: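 Stable cell line carrying PD1-ss+10aa/Gaussia luciferase cDNA under T-REx (doxycycline-inducible) control, plated the day before assay. Compound dilutions in DMSO/media containing doxycycline added and incubated at 37° C, 5% CO2. Undefined stereocentres: data refer to stereoisomer mixtures.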

[2] = tested on: human multiple myeloma cell line U266B1; test: U266 Cell Viability Assay; conditions: U-266, 48 hr, U266B1 cells, Celltiter-Glo, read-out: 48 hr U266 Viability Celltiter-Glo: Mean EC50
In short: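 U266B1 myeloma cells treated with compound dilutions in DMSO/media for 48 h at 37 °C, 5% CO2. Viability read by CellTiter-Glo luminescence. Stereochemically undefined structures were tested as stereoisomer mixtures.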

[3] = tested on: IL-2-FL/Gaussia Luciferase; test: Dox Induced IL2-FL-Gluc Assay; conditions: 24 hr doxycycline induction, 293FRT/TO cells, Gaussia luciferase signal; read-out: 24 hr Dox Inducible IL2FLGIuc 293FRT/TO: Mean IC50
In short: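 Stable T-REx cell line expressing doxycycline-inducible IL-2-FL/Gaussia luciferase cDNA, plated the day before assay. Compound dilutions in DMSO/media containing doxycycline added and incubated at 37° C., 5% CO2. Unspecified stereochemistry means data refer to a stereoisomer mixture.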

[4] = tested on: human multiple myeloma cell line NCI-H929; test: H929 Cell Viability Assay; conditions: 48 hr, NCI-H929 cells, Celltiter-Glo, read-out: 48 hr H929 Viability Celltiter-Glo: Mean EC50
Description: Plates were incubated at 37° C., 5% CO2 for 48 hours. After 48 hours, Celltiter-Glo® (Promega) was added to each well and luciferase signal was quantified using Tecan Infinite M1000 Pro for cell viability determination.
For chemical structures that include one or more stereoisomers, but are illustrated without indicating stereochemistry, the assay data refers to a mixture of stereoisomers.

[5] = tested on: HER3-ss+4aa/Gaussia Luciferase; test: Dox-Induced Her3-ss-Gluc Assay; conditions: 24 hr doxycycline induction, 293FRT/TO cells, Gaussia luciferase signal; read-out: 24 hr Dox Inducible Her3(ss + 4)Gluc 293FRT/TO: Mean IC50
In short: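 Stable T-REx cell line carrying a doxycycline-regulated HER3-ss+4aa/Gaussia luciferase insert, plated the day before assay. Compound dilutions in DMSO/media with doxycycline added, then incubated at 37° C., 5% CO2. Stereoisomer mixtures tested where stereochemistry is not drawn.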

[6] = tested on: TNFα-FL/Gaussia Luciferase; test: Dox Induced TNFα-FL-Gluc Assay; conditions: 24 hr doxycycline induction, 293FRT/TO cells, Gaussia luciferase signal; read-out: 24 hr Dox Inducible TNFaFLGluc 293FRT/TO: Mean IC50
In short: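 A stable T-REx cell line carrying doxycycline-inducible TNFα-FL/Gaussia luciferase was plated the day before assay. Compound dilutions in DMSO/media containing doxycycline were then added and incubated at 37° C, 5% CO2.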

Structure (SMILES) | pIC50 [1] | pEC50 [2] | pIC50 [3] | pEC50 [4] | pIC50 [5] | pIC50 [6]
CC(C)OC(C)(C)c1csc(NC(=O)c2cccn2Cc2cc[n+]([O-])cc2)n1 [Compound A85] | 5.12 | < 4.60 | < 4.60 | < 4.60 | < 4.60 | < 4.60
CC(C)OC(C)(C)c1csc(NC(=O)c2c(Cl)ccn2Cc2ccncc2)n1 [Compound A86, 3-chloro-N-(4-(2-isopropoxypropan-2-yl)thiazol-2-yl)-1-(pyridin-4-ylmethyl)-1H-pyrrole-2-carboxamide] | 5.10 | < 4.60 | < 4.60 | < 4.60 | < 4.60 | < 4.60
Cc1ccn(Cc2ccncc2)c1C(=O)Nc1nc(C(C)(C)OC(C)C)cs1 [Compound A88, N-(4-(2-isopropoxypropan-2-yl)thiazol-2-yl)-3-methyl-1-(pyridin-4-ylmethyl)-1H-pyrrole-2-carboxamide] | 5.02 | < 4.60 | < 4.60 | < 4.60 | < 4.60 | < 4.60
CC(C)(O)c1cnc(NC(=O)c2cccn2Cc2ccncc2)s1 [Compound A89] | 5.01 | < 4.60 | < 4.60 | < 4.60 | < 4.60 | < 4.60
CC(C)OC(C)(C)c1csc(NC(=O)c2cccn2CCc2ccncc2)n1 [Compound A91, N-(4-(2-isopropoxypropan-2-yl)thiazol-2-yl)-1-(2-(pyridin-4-yl)ethyl)-1H-pyrrole-2-carboxamide] | 4.92 | < 4.60 | < 4.67 | < 4.60 | < 4.60 | < 4.60
CCc1sc(NC(=O)c2cccn2Cc2ccncc2)nc1CN1CCN(S(=O)(=O)CC)CC1 [Compound A92, N-(5-ethyl-4-((4-(ethylsulfonyl)piperazin-1-yl)methyl)thiazol-2-yl)-1-(pyridin-4-ylmethyl)-1H-pyrrole-2-carboxamide] | 4.88 | < 4.60 | < 4.60 | < 4.60 | < 4.60 | < 4.60
CC(C)OC(C)(C)c1csc(NC(=O)c2cccn2CC2CNC(=O)C2)n1 (stereo not drawn) [Compound A93, N-(4-(2-isopropoxypropan-2-yl)thiazol-2-yl)-1-((5-oxopyrrolidin-3-yl)methyl)-1H-pyrrole-2-carboxamide] | 4.88 | < 4.60 | < 4.60 | < 4.60 | < 4.60 | < 4.60
O=C(Nc1nc2c(s1)COCC2)c1cccn1Cc1ccncc1 [Compound A95] | 4.83 | < 4.60 | < 4.60 | < 4.60 | < 4.60 | < 4.60
CCS(=O)(=O)N1CCN(Cc2csc(NC(=O)c3cccn3Cc3ccncc3)n2)CC1 [Compound A96, N-(4-((4-(ethylsulfonyl)piperazin-1-yl)methyl)thiazol-2-yl)-1-(pyridin-4-ylmethyl)-1H-pyrrole-2-carboxamide] | 4.80 | < 4.60 | < 4.60 | < 4.60 | < 4.60 | < 4.60
CCN(C(=O)c1cccn1Cc1ccncc1)c1nc(C)cs1 [Compound A98] | 4.71 | < 4.60 | < 4.60 | < 4.60 | < 4.60 | < 4.60
CC(=O)N(C)c1ccc(Cn2cccc2C(=O)Nc2nc(C(C)(C)OC(C)C)cs2)cc1 [Compound A99, N-(4-(2-isopropoxypropan-2-yl)thiazol-2-yl)-1-(4-(N-methylacetamido)benzyl)-1H-pyrrole-2-carboxamide] | 4.70 | < 4.60 | < 4.60 | < 4.60 | < 4.60 | < 4.60
CC(C)OC(C)(C)c1csc(NC(=O)C2CCCC(=O)N2Cc2ccncc2)n1 (stereo not drawn) [Compound A102, N-(4-(2-isopropoxypropan-2-yl)thiazol-2-yl)-6-oxo-1-(pyridin-4-ylmethyl)piperidine-2-carboxamide] | < 4.60 | < 4.60 | < 4.60 | < 4.60 | < 4.60 | < 4.60
Cc1cc(C(=O)Nc2nc(C(C)(C)OC(C)C)cs2)n(Cc2ccncc2)n1 [Compound A103] | < 4.60 | < 4.60 | < 4.60 | < 4.60 | < 4.60 | < 4.60
CC(C)OC(C)(C)c1csc(NC(=O)c2cncn2Cc2ccncc2)n1 [Compound A104, N-(4-(2-isopropoxypropan-2-yl)thiazol-2-yl)-1-(pyridin-4-ylmethyl)-1H-imidazole-5-carboxamide] | < 4.60 | < 4.60 | < 4.60 | < 4.60 | < 4.60 | < 4.60
CC(C)OC(C)(C)c1csc(NC(=O)c2ccc(C(N)=O)n2Cc2ccncc2)n1 [Compound A105, N-(4-(2-isopropoxypropan-2-yl)thiazol-2-yl)-1-(pyridin-4-ylmethyl)-1H-pyrrole-2,5-dicarboxamide] | < 4.60 | < 4.60 | < 4.60 | < 4.60 | < 4.60 | < 4.60

The remaining lines, values ahead:

pIC50 [1] | pEC50 [2] | pIC50 [3] | pEC50 [4] | pIC50 [5] | pIC50 [6] | Structure (SMILES)
5.09 | < 4.60 | 5.07 | < 4.60 | < 4.60 | < 4.60 | CC(C)OC(C)(C)c1csc(NC(=O)c2cccn2Cc2cccnc2)n1 [Compound A87, N-(4-(2-isopropoxypropan-2-yl)thiazol-2-yl)-1-(pyridin-3-ylmethyl)-1H-pyrrole-2-carboxamide]
5.00 | < 4.60 | < 4.60 | 4.77 | < 4.60 | < 4.60 | CC(C)OC(C)(C)c1csc(NC(=O)c2cccn2Cc2ccnc3ccccc23)n1 [Compound A90, N-(4-(2-isopropoxypropan-2-yl)thiazol-2-yl)-1-(quinolin-4-ylmethyl)-1H-pyrrole-2-carboxamide]
4.84 | < 4.60 | < 4.60 | < 4.60 | < 4.60 | < 4.60 | COCc1cnc(NC(=O)c2cccn2Cc2ccncc2)s1 [Compound A94]
4.72 | < 4.60 | < 4.60 | < 4.60 | < 4.60 | < 4.60 | Cc1cc(Cn2cccc2C(=O)Nc2nc(C(C)(C)OC(C)C)cs2)cc(C)n1 [Compound A97]
4.61 | < 4.60 | < 4.60 | 4.61 | < 4.60 | < 4.60 | CC(C)OC(C)(C)c1csc(NC(=O)c2ccn(Cc3ccncc3)n2)n1 [Compound A100, N-(4-(2-isopropoxypropan-2-yl)thiazol-2-yl)-1-(pyridin-4-ylmethyl)-1H-pyrazole-3-carboxamide]
< 4.60 | < 4.60 | < 4.60 | < 4.60 | < 4.60 | < 4.60 | CC(=O)N1CCC(CCCn2cccc2C(=O)Nc2nc(C(C)(C)OC(C)C)cs2)CC1 [Compound A101, 1-(3-(1-acetylpiperidin-4-yl)propyl)-N-(4-(2-isopropoxypropan-2-yl)thiazol-2-yl)-1H-pyrrole-2-carboxamide]
< 4.60 | < 4.60 | < 4.60 | < 4.60 | < 4.60 | < 4.60 | CC(C)OC(C)(C)c1csc(NC(=O)c2cccc(=O)n2Cc2ccncc2)n1 [Compound A106, N-(4-(2-isopropoxypropan-2-yl)thiazol-2-yl)-6-oxo-1-(pyridin-4-ylmethyl)-1,6-dihydropyridine-2-carboxamide]
< 4.60 | < 4.60 | < 4.60 | < 4.60 | < 4.60 | < 4.60 | CC(C)OC(C)(C)c1csc(NC(=O)c2ccc(C(=O)N(C)C)n2Cc2ccncc2)n1 [Compound A107, N2-(4-(2-isopropoxypropan-2-yl)thiazol-2-yl)-N5,N5-dimethyl-1-(pyridin-4-ylmethyl)-1H-pyrrole-2,5-dicarboxamide]
